IC50 and Kd data for 19 compounds are collected here from US8946216B2, “Indazole derivatives useful as ERK inhibitors” (Merck Sharp & Dohme Corp., priority 2010, dated 2015).

In assay [1] the target is unphosphorylated Mouse ERK2 protein (inactive ERK2) (Mus musculus, UniProt P63085). The assay can be described thus: Coupled ERK2 (cERK) assay, coupled MEK1/ERK2 IMAP. The class given is biochemical. Conditions: 30 min preincubation with inactive ERK2, then activation by human MEK1; 30 μM ATP; fluorescence polarization; read-out: cERK2 IC50. The source says: • 1. M. W. Pantoliana, E. C. Petrella, J. D. Kwasnoski, V. S. Lobanov, J. Myslik, E. Graf, T. Carver, E. Asel, B. A. Springer, P. Lane, F. R. Salemme, High-density miniaturized thermal shift assays as a general strategy for drug discovery, J. Biomol. Screen 6 (2001) 429-440 • 2. J. F. Brandts, L.-N. Lin, Study of strong to ultratight protein interactions using differential scanning calorimetry, Biochemistry 29 (1990) 6927-6940 • 3. Mayhood, T. W., Windsor, W. T., Ligand binding affinity determined by temperature-dependent circular dichroism: Cyclin-dependent kinase 2 inhibitors, Analytical Biochemistry 345 (2005) 187-197 Coupled ERK2 (cERK) Assay:
14 μl of kinase buffer (10 mM Tris.HCl pH 7.2, 10 mM MgCl2, 0.01% Tween-20, 1 mM DTT) containing 0.4 ng unphosphorylated Mouse ERK2 protein was added to each well of a black 384-well assay plate. […] DMSO concentration during initial incubation is 6.7%. ERK2 activity was determined to be insensitive to DMSO concentrations up to 20%. ERK2 was then activated and it's kinase activity measured by the addition of 10 μl kinase buffer with the following components (final concentration per reaction): 2 ng active (phosphorylated) human MEK1 protein and 4 μM (total) ERK2 IMAP substrate peptides (3.9 μM unlabeled IPTTPITTTYFFFK-CONH2 and 100 nM IPTTPITTTYFFFK(5-carboxyfluorescein)-CONH2) and 30 μM ATP. DMSO concentration during ERK activation was 4%. After one hour, reactions were terminated by addition of 60 μl IMAP detections beads in binding buffer (Molecular Devices). Binding was allowed to equilibrate for 30 minutes before reading the plate on an LJL Analyst Fluorescence Polarization plate reader. […] Active compounds were reconfirmed in an independent assay.

Assay [2] concerns the target fully phosphorylated, active Mouse ERK2 protein (Mus musculus, UniProt P63085). In words: Active ERK2 (aERK) assay, IMAP format. Format: biochemical. As to conditions: 30 min preincubation; 1 μM substrate peptide, 30 μM ATP; fluorescence polarization; read-out: aERK2 IC50. The protocol: Active ERK2 (aERK) Assay:
Activated ERK2 activity was also determined in the IMAP assay format using the procedure outlined above. 1 μl of 25× compound was added to 14 μl of kinase buffer containing 0.25 ng fully phosphorylated, active Mouse ERK2 protein. Following a 30 minute incubation, the reactions were initiated by addition of 10 μl of kinase buffer containing 1 μM ERK2 IMAP substrate peptide (0.9 μM unlabeled IPTTPITTTYFFFK--CONH2 and 100 nM IPTTPITTTYFFFK(5-carboxyfluorescein)-CONH2) and 30 μM ATP. Reactions proceeded for 30 minutes before termination by addition of 60 μl IMAP detection beads in binding buffer. Plates were read as above after 30 minute binding equilibration. Active compounds were reconfirmed in an independent assay.

In a further assay the target is ERK protein (Homo sapiens, UniProt P28482). In words: TdF (Temperature Dependence Fluorescence, thermal shift) assay for ERK. Conditions: read-out: TdF Kd; 3 μM ERK protein, 15, 50 or 100 μM compound, Sypro Orange; Kd calculated from ΔTm; uncertainty estimated ±50%. Format: binding. The source says: Assays: TdF Assay for ERK
The SAR (Structure Activity Relationship) for ERK ligands covered by this invention was interrogated using the TdF (Temperature Dependence Fluorescence) assay or best known as thermal shift assay. The TdF assay was mainly conducted in the 96-well based CHROMO-4 real time fluorescence plate reader (BioRad). The Sypro Orange (Sigma-Aldrich), environmentally sensitive fluorescence dye, was used to monitor the protein folding-unfolding transition. Protein-ligand binding was gauged by the change (or shift) in the unfolding transition temperature (ΔTm) acquired at protein alone with respect to protein in the presence of ligand of interest.
Compound of interest was first prepared in DMSO stock (typical concentration: 10 mM). Sample of 20 μL was then added into the 96-well PCR plate, where it consisted of 3 μM. […] Final percentage of DMSO resided in the sample was 2%. The sample plate was heated from 30° C. to 90° C. with thermal ramping rate of 1 ° C./min. The fluorescence signals were acquired with excitation and emission wavelengths centered at 490 and 560 nm respectively. The instrument thermal stability was ±0.2° C. The melting temperatures (Tm) for ERK protein under aforementioned conditions occurred at 61.0±0.2° C. and 64.8±0.2° C. respectively.
Theoretical Basis for TdF-based Ligand Binding Affinity Constant
The derivation of TdF-based ligand binding affinity constant (Kd) followed closely those previously formulated by Brandts and Lin [2]. In brief, the binding constant of the ligand at the Tm is expressed as below: […]
where T0 is the midpoint of unfolding for unliganded protein and Tm is the midpoint of unfolding in presence of ligand. [LTm] is free ligand at Tm. The ΔHu and ΔCpu are the enthalpy of unfolding and heat capacity change of unfolding for the protein respectively. Following algorithm derived by Winsor and coworker, the T0, ΔHu and ΔCpu can be determined separately from nonlinear regression fitting the protein alone melting curve:
Where F(T) is the observed fluorescence intensity at any temperature T, Yn and Yu are the predicted fluorescence intensities for fully folded and unfolded protein, respectively; mn and mu are slope correction for changes in Yn and Yu with respect to changes in temperature (analogously replace T0 with Tm in the above equation for liganded protein to yield Tm).
where ΔHL(T) is the van't Hoff enthalpy of ligand binding at temperature T and ΔCpL is the heat capacity upon ligand binding. For simplicity, the ΔCpL and ΔHL(T) were set to zero and −7 kcal/mol respectively. The uncertainty in the calculated ligand binding affinity constant was estimated to be ±50%.

pIC50, pKd: −log10 of the molar value.

Chain of unphosphorylated Mouse ERK2 protein (inactive ERK2) (P63085 whole entry): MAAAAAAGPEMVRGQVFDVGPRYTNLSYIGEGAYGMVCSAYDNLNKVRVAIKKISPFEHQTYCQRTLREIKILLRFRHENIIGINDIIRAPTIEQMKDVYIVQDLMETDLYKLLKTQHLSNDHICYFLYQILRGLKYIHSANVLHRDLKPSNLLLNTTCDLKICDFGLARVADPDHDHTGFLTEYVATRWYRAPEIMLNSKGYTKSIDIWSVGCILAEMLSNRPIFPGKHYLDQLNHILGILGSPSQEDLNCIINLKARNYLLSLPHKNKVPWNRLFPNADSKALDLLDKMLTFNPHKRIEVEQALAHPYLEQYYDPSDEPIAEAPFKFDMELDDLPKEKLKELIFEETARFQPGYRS
Chain of fully phosphorylated, active Mouse ERK2 protein (P63085 whole entry): as above
Chain of ERK protein (P28482 2-360): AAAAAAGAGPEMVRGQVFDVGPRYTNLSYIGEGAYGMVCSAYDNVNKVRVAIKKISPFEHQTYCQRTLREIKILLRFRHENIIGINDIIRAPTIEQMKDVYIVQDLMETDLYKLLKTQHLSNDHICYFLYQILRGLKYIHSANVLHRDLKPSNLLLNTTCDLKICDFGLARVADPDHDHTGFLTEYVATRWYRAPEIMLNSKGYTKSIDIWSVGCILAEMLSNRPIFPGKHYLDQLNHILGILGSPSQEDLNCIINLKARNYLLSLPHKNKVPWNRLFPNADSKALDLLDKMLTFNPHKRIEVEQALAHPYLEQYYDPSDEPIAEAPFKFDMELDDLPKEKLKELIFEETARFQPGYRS

As for `CC(C)Oc1ccc(-c2n[nH]c3ccc(NC(=O)C4CN(Cc5ccccc5)CCO4)cc23)cn1` (centres unmarked) [Compound 1, N-[3-[6-(1-METHYLETHOXY)-3-PYRIDINYL]-1H-INDAZOL-5-YL]-4-(PHENYLMETHYL)-2-MORPHOLINECARBOXAMIDE], the pIC50 is 6.27 in assay [1] and 6.00 in assay [2]. Besides, the pKd on ERK protein was 6.62.
For the compound `O=C(Nc1ccc2[nH]nc(-c3ccncc3)c2c1)C1CN(Cc2cscn2)CCO1` (centres unmarked) [Compound 2, N-[3-(4-PYRIDINYL)-1H-INDAZOL-5-YL]-4-(4-THIAZOLYLMETHYL)-2-MORPHOLINECARBOXAMIDE], the figures for the pIC50 in assay [1] and in assay [2] were 5.74 and 6.23, respectively. At ERK protein, the pKd is 6.26.
Take `O=C(Nc1ccc2[nH]nc(-c3ccncc3)c2c1)C1CN(Cc2ccccc2F)CCO1` (centres unmarked) [Compound 4, 4-[(2-FLUOROPHENYL)METHYL]-N-[3-(4-PYRIDINYL)-1H-INDAZOL-5-YL]-2-MORPHOLINECARBOXAMIDE]: the pIC50 in assay [1] was 7.53; in assay [2] it was 7.68. Moreover, at ERK protein, the pKd was 7.70.
Consider `O=C(Nc1ccc2[nH]nc(-c3ccncc3)c2c1)C1CN(Cc2c(F)cccc2C(F)(F)F)CCO1` (centres unmarked) [Compound 39, 4-[[2-FLUORO-6-(TRIFLUOROMETHYL)PHENYL]METHYL]-N-[3-(4-PYRIDINYL)-1H-INDAZOL-5-YL]-2-MORPHOLINECARBOXAMIDE], for which, in assay [1], the negative-log IC50 (pIC50) was 5.32. Besides, at ERK protein, the pKd was 6.15.
In the case of `COc1cc(F)c(CN2CCOC(C(=O)Nc3ccc4[nH]nc(-c5ccncc5)c4c3)C2)cc1OC` (centres unmarked) [Compound 40, 4-[(2-FLUORO-4,5-DIMETHOXYPHENYL)METHYL]-N-[3-(4-PYRIDINYL)-1H-INDAZOL-5-YL]-2-MORPHOLINECARBOXAMIDE], the pIC50 in assay [1] is 5.96. Also, the pKd on ERK protein is 5.93.
In the case of `O=C(Nc1ccc2[nH]nc(-c3ccncc3)c2c1)C1CN(Cc2ccc(Cl)cc2F)CCO1` (centres unmarked) [Compound 41, 4-[(4-CHLORO-2-FLUOROPHENYL)METHYL]-N-[3-(4-PYRIDINYL)-1H-INDAZOL-5-YL]-2-MORPHOLINECARBOXAMIDE], the pIC50 in assay [1] was 6.38. Moreover, the pKd at ERK protein is 6.23.
As for `O=C(Nc1ccc2[nH]nc(-c3ccncc3)c2c1)C1CN(Cc2cc(C(F)(F)F)ccc2F)CCO1` (centres unmarked) [Compound 42, 4-[[2-FLUORO-5-(TRIFLUOROMETHYL)PHENYL]METHYL]-N-[3-(4-PYRIDINYL)-1H-INDAZOL-5-YL]-2-MORPHOLINECARBOXAMIDE], in assay [1], the pIC50 is 5.57. Further, the pKd at ERK protein is 5.90.
Take `O=C(Nc1ccc2[nH]nc(-c3ccncc3)c2c1)C1CN(Cc2ccc(F)c(Cl)c2)CCO1` (centres unmarked) [Compound 49, 4-[(3-CHLORO-4-FLUOROPHENYL)METHYL]-N-[3-(4-PYRIDINYL)-1H-INDAZOL-5-YL]-2-MORPHOLINECARBOXAMIDE]: the pIC50 in assay [1] is 5.75. For the same compound, the pKd at ERK protein was 6.04.
For `O=C(Nc1ccc2[nH]nc(-c3ccncc3)c2c1)C1CN(Cc2cc(F)ccc2F)CCO1` (centres unmarked) [Compound 51, 4-[(2,5-DIFLUOROPHENYL)METHYL]-N-[3-(4-PYRIDINYL)-1H-INDAZOL-5-YL]-2-MORPHOLINECARBOXAMIDE], the pIC50 in assay [1] is 6.40. Further, the pKd on ERK protein is 6.14.
The corresponding values for `O=C(Nc1ccc2[nH]nc(-c3ccncc3)c2c1)C1CNCCN1c1ccccc1` (centres unmarked) [Compound 54, 1-PHENYL-N-[3-(4-PYRIDINYL)-1H-INDAZOL-5-YL]-2-PIPERAZINECARBOXAMIDE] are 6.77 and 7.52.
Regarding `O=C(Nc1ccc2[nH]nc(-c3ccncc3)c2c1)[C@@H]1CCN(Cc2ccccc2)C1` [Compound 62, 1-(PHENYLMETHYL)-N-[3-(4-PYRIDINYL)-1H-INDAZOL-5-YL]-3(R)-PYRROLIDINECARBOXAMIDE], the pIC50 in assay [2] is 6.54. For the same compound, the pKd at ERK protein is 7.46.
`O=C(Nc1ccc2[nH]nc(-c3ccncc3)c2c1)C1CN(CCCc2ccccc2)CCS1` (centres unmarked) [Compound 67, 4-(3-PHENYLPROPYL)-N-[3-(4-PYRIDINYL)-1H-INDAZOL-5-YL]-2-THIOMORPHOLINECARBOXAMIDE]: the pIC50 in assay [2] is 6.00.
Consider `O=C(Nc1ccc2[nH]nc(-c3ccncc3)c2c1)C1CN(CCc2ccccc2)CCS1` (centres unmarked) [Compound 68, 4-(2-PHENYLETHYL)-N-[3-(4-PYRIDINYL)-1H-INDAZOL-5-YL]-2-THIOMORPHOLINECARBOXAMIDE], for which the pIC50 in assay [2] was 6.05.
Turning to `O=C(Nc1ccc2[nH]nc(-c3ccncc3)c2c1)C1CN(Cc2ccccc2)CCC12OCCO2` (centres unmarked) [Compound 72, 8-(PHENYLMETHYL)-N-[3-(4-PYRIDINYL)-1H-INDAZOL-5-YL]-1,4-DIOXA-8-AZASPIRO[4.5]DECANE-6-CARBOXAMIDE], in assay [2], the pIC50 is 6.00. The pKd on ERK protein is 6.65.
In the case of `CC(c1ccccc1)N1CCC[C@H](C(=O)Nc2ccc3[nH]nc(-c4ccncc4)c3c2)C1` (stereo partly drawn) [Compound 73, 1-(1-PHENYLETHYL)-N-[3-(4-PYRIDINYL)-1H-INDAZOL-5-YL]-3(S)-PIPERIDINECARBOXAMIDE], in assay [2], the pIC50 is 6.72. Moreover, on ERK protein, the pKd was 7.59.
With `CNC(=O)c1n[nH]c2ccc(NC(=O)C3CN(Cc4ccccc4F)CCS3)cc12` (centres unmarked) [Compound 75, 5-[[[4-[(2-FLUOROPHENYL)METHYL]-2-THIOMORPHOLINYL]CARBONYL]AMINO]-N-METHYL-1H-INDAZOLE-3-CARBOXAMIDE], the pIC50 in assay [1] was 6.46. The pKd at ERK protein was 6.60.
The corresponding values for `CCCCNC(=O)c1n[nH]c2ccc(NC(=O)C3CN(Cc4ccccc4F)CCS3)cc12` (centres unmarked) [Compound 76, N-BUTYL-5-[[[4-[(2-FLUOROPHENYL)METHYL]-2-THIOMORPHOLINYL]CARBONYL]AMINO]-1H-INDAZOLE-3-CARBOXAMIDE] are 6.06 and 6.04.
As for `O=C(NCc1ccccc1)c1n[nH]c2ccc(NC(=O)C3CN(Cc4ccccc4F)CCS3)cc12` (centres unmarked) [Compound 77, 5-[[[4-[(2-FLUOROPHENYL)METHYL]-2-THIOMORPHOLINYL]CARBONYL]AMINO]-N-(PHENYLMETHYL)-1H-INDAZOLE-3-CARBOXAMIDE], in assay [1], the pIC50 was 5.51. The pKd at ERK protein was 5.74.
As to `CN1CC(Cc2ccccc2)CC(C(=O)Nc2ccc3[nH]nc(-c4ccncc4)c3c2)C1` (centres unmarked) [Compound 78, 1-METHYL-5-(PHENYLMETHYL)-N-[3-(4-PYRIDINYL)-1H-INDAZOL-5-YL]-3-PIPERIDINECARBOXAMIDE], the pIC50 in assay [2] was 8.72.
